# In US6534482B1, “Expression vectors for stimulating an immune response and methods of using the same” (priority 1998, dated 2003):
# Entries after “also recorded” stand apart in the source; their conditions may differ.
# Assays:
# CTL response = tested on: CTL response; design: species or system HLA-A2.1/K^b-H-2^bxs transgenic mice; conditions: mouse; for Immunogenicity In Vivo (IFA): No. CTL-Positive Cultures: sc; for immunogenicity of the peptide administered in IFA (in words): in vivo
# [1] = mouse, in vivo; cited from earlier work
# [2] = tested on: mouse and human MHC class II haplotypes; conditions: wide range of mouse and human MHC class II haplotypes; cited from earlier work
Compound,Immunogenicity In Vivo (IFA): CTL Response (Geo. Mean ΔLU) (CTL response),Immunogenicity In Vivo (IFA): No. CTL-Positive Cultures (CTL response),immunogenicity of the peptide administered in IFA (in words) (CTL response),immunogenicity in H-2^b mice (in words) [1],MHC binding affinity (in words) [2]
CC(C)[C@H](NC(=O)[C@@H](N)[C@@H](C)O)C(=O)N[C@@H](Cc1ccc(O)cc1)C(=O)N[C@@H](Cc1ccc(O)cc1)C(=O)NCC(=O)N[C@H](C(=O)N1CCC[C@H]1C(=O)N[C@H](C(=O)N[C@@H](Cc1c[nH]c2ccccc12)C(=O)N[C@@H](CCCCN)C(=O)O)C(C)C)C(C)C [HIV Env 49],13.4 (3.1) ΔLU,28/33,,,
CC(C)C[C@H](NC(=O)[C@H](CO)NC(=O)[C@H](CC(C)C)NC(=O)[C@@H](N)Cc1c[nH]c2ccccc12)C(=O)N[C@@H](CC(C)C)C(=O)N[C@H](C(=O)N1CCC[C@H]1C(=O)N[C@@H](Cc1ccccc1)C(=O)N[C@H](C(=O)O)C(C)C)C(C)C [HBV Env 335],5.3 (1.6) ΔLU,4/6,immunogenic,,
AKFVAAWTLKAAA [PADRE],,,,highly immunogenic,high MHC binding affinity
CC(C)C[C@H](NC(=O)[C@@H](NC(=O)[C@@H](N)CO)[C@@H](C)O)C(=O)N1CCC[C@H]1C(=O)N[C@@H](CCC(=O)O)C(=O)N[C@H](C(=O)N[C@H](C(=O)N[C@H](C(=O)N[C@H](C(=O)N[C@@H](CCCNC(=N)N)C(=O)N[C@@H](CCCNC(=N)N)C(=O)O)C(C)C)C(C)C)[C@@H](C)O)[C@@H](C)O [HBV Core 141],12.1 (2.6) ΔLU,6/6,,,
CC[C@H](C)[C@H](N)C(=O)N[C@@H](CC(C)C)C(=O)N[C@@H](CCCCN)C(=O)N[C@@H](CCC(=O)O)C(=O)N1CCC[C@H]1C(=O)N[C@H](C(=O)N[C@@H](Cc1c[nH]cn1)C(=O)NCC(=O)N[C@H](C(=O)O)C(C)C)C(C)C [HIV Pol 476],15.2 (2.9) ΔLU,2/5,,,
CSCC[C@H](NC(=O)[C@@H](N)Cc1ccc(O)cc1)C(=O)N[C@@H](CC(=O)O)C(=O)N[C@@H](CC(=O)O)C(=O)N[C@H](C(=O)N[C@H](C(=O)N[C@@H](CC(C)C)C(=O)NCC(=O)N[C@@H](C)C(=O)O)C(C)C)C(C)C [HBV Pol 55 1-A],,0/6,weakly or nonimmunogenic; also recorded: essentially nonimmunogenic,,
CC[C@H](C)[C@H](NC(=O)CNC(=O)[C@H](C)NC(=O)[C@H](CCCCN)NC(=O)[C@H](Cc1c[nH]c2ccccc12)NC(=O)[C@H](CC(C)C)NC(=O)[C@@H](NC(=O)[C@@H](N)Cc1c[nH]cn1)[C@@H](C)O)C(=O)N[C@@H](CC(C)C)C(=O)N[C@@H](Cc1ccc(O)cc1)C(=O)N[C@@H](CCCCN)C(=O)O [HBV Pol 149],13.1 (1.2) ΔLU,6/6,,,
